Data as given in patent publication US20230064978A1, “CYCLIC PEPTIDE RECEPTOR LANTHIONINE SYNTHETASE C-LIKE PROTEIN (LANCL) AND USES THEREOF” (LATERAL IP PTY LTD, priority 2019, published 2023).
Bridges are numbered along the chain shown (N, C = ends). Where no end group is shown, it is not given here.

Key:
[1] = test system: NCI-H358 cells; assay: Confocal imaging of LAT9991F-PAL binding and LANCL1 co-localization, with siRNA knockdown and competitors, in NCI-H358 cells; format: cell-based; details: for Competition of LAT9991F-PAL binding by excess competitor: competitor 25 μM
Experimental: (§1) A photoactivatable analog of LAT8881 (LAT9991F (SEQ ID NO:13)-PAL), was used to conduct the experiments. A549 or NCI-H358 cells were treated with LAT9991F-PAL at 2.5 μM during 30 minutes. Fluorescent signal was recorded after that LAT9991F-PAL was immobilized on its target(s) site by UV-crosslinking and the LAT9991F-PAL-target complexes were labeled with the green-fluorescent Alexa Fluor 488 alkyne dye by click-chemistry. Control cells were treated with the vehicle, dimethyl sulfoxide (DMSO), and with LAT9991F-PAL in combination with a large excess of the parent drug LAT8881 or other competitors, GSH, NSC61610 or ABA to evaluate, respectively, the non-specific fluorescent background and the specificity of the staining. For colocalization experiments, subsequently, immunofluorescence staining with an anti-LANCL1 or LANCL2 antibodies and an Alexa 568 (red) conjugated secondary antibody was performed. Images stacks of cells labeled with probes were collected and evaluated for the degree of colocalization of LAT9991F-PAL-target complexes and LANCL1 or LANCL2 using either the Measure Colocalization plugin in Metamorph or the JACoP plugin in ImageJ).
(§2) A549 or NCI-H358 cells (ATCC CCL-185 and ATCC CRL-5807, respectively) were cultured in appropriate medium containing 10% heat-inactivated FBS (Dutscher, #SV30160-036), 1% penicillin/streptomycin (Gibco, #15140-122) and maintained in a humidified 37° C. incubator with 5% CO2.
(§3) LAT9991F-PAL was dissolved in DMSO to make a 10 mM stock solution. Intermediate solutions at 25 μM and 2.5 μM were made in the culture medium from the 10 mM stock solutions of LAT8881 and LAT9991F-PAL, respectively. A two-fold dilution into PBS of each intermediate solution was used for cell treatment. A stock solution at 10 mM was prepared for the other competitors as GSH, NSC61610 and ABA. A final concentration at 25 μM was used for the assay.
ibidiTreat Polymer Coverslips (Ibidi, #80826) were coated with serum during 1 hour at 37° C., followed by Laminin (100 μg\ml) (incubation for 1 hour at 37° C.) for NCI-H358 cells.
(§4) A549 or NCI-H358 cells were seeded onto ibidiTreat Polymer Coverslips (Ibidi, #80826) at 2.5×10^5 cells/cm^2 in 200 μl of complete medium. After 24 hours, the medium was removed and cells were washed with PBS (Gibco, #10010049) and then pre-treated with the Taxol at 1 μM for 3 hours or with H2O2 25 μM for 2 hours. Cells were washed twice with PBS. Induced stress cells or control cells were then exposed to LAT9991F-PAL (2.5 μM) in PBS for 30 minutes, in the presence or absence of LAT8881 (25 μM), or the other compounds used as a competitor, and pre-incubated 10 minutes. After treatment, cells were washed with cold PBS and UV-irradiated (365 nm) in PBS for 20 min. After fixation with 4% paraformaldehyde and permeabilization (0.5% Triton/PBS) (Image-iT™ Fixation/Permeabilization Kit, ThermoFisher, #R37602), the bioorthogonal reaction with Alexa Fluor 488 Alkyne (1 μM) (ThermoFisher, #A10267) was performed at 25° C. using the Click-iT™ Cell Reaction Buffer Kit (ThermoFisher, #C10269) according to the manufacturer protocol. After click reaction, cells were washed twice with PBS, blocked with 3% BSA in PBS for 1 hour and stained with Hoechst 33342 dye (ThermoFisher, #H1399).
(§5) For colocalization experiments, cells were further incubated overnight at 4° C. with a mouse anti-LanCL1 antibody (Invitrogen, PAS-57-107) (dilution 1:1000) or LanCL2 (Atlas Antibodies HPA019711) (dilution 1:1000) in 3% BSA in PBS, washed twice with PBS, and then incubated respectively with a goat anti-mouse […] (Molecular Probes, #A21467) (dilution 1:800) for 1 h in 3% BSA in PBS. After three further washing steps with PBS, cells were embedded in Ibidi Mounting Medium (ibidi, #50001). The specimens were kept at 4° C. in the dark until analysis.
Images were acquired on an Axiovert200M (Zeiss) microscope using a CSU-W1 Yokogawa confocal unit.

[2] = test system: A549 cells; assay: Confocal imaging of LAT9991F-PAL binding and LANCL1 co-localization, with siRNA knockdown and competitors, in A549 cells; format: cell-based; details: for Competition of LAT9991F-PAL binding by excess competitor: competitor 25 μM
Experimental: as §1, §2, §3, §4, §5
Images were acquired on an Axiovert200M (Zeiss) microscope using a CSU-W1 Yokogawa confocal unit. This microscope is equipped with a plan Apochromat X40 dry objective numerical aperture (NA) 0.95 and a Neofluar X100 oil immersion objective NA 1.45. Images were capture with an EMCCD camera (Prior, ProEM 1024×1024).

[3] = molecular target: T1, human recombinant LANCL1 (Homo sapiens, UniProt O43813); assay: In-gel fluorescence: photolabelling of recombinant LANCL1 with PAL probes, with or without excess competitor; format: binding; details: for Inhibition of LAT9991-PAL binding to recombinant LANCL1 by excess competitor: probe LAT9991-PAL, excess unlabelled competitor
T1 construct: purchased ABCAM ab181923; host or cells: E. coli
Experimental: The in-gel fluorescence protocol can be briefly described as follows:
1. LANCL1 Labelling, Assay on 96 Well Plate, Volume of the Reaction 40 μl in PBS
3 μg/well of human recombinant LANCL1 (ABCAM catalog no. ab181923, 1 mg/ml; expressed in E. Coli and incorporating an N-terminal 23 amino acid hexaHis tag; UniProtKB/Swiss-Prot Accession no: O43813);
• Vehicle DMSO • ±LAT8881 (a cyclic peptide fragment of human growth hormone; SEQ ID NO:1) • SEQ ID NO:1) as competitor @ 25, 50, 100 or 200 μM, pre-incubation 10 min, 4 μl of a stock solution 10-fold concentrated • ±LAT9991-PAL, LAT7771-PAL or LAT9993-PAL probes @ 1 μM, incubation 30 min at room temperature on a plate agitator (protected from light), 4 μl of a stock solution @10 μM
• Irradiation @ 365 nm 20 min (4° C., on a support containing ice) Transfer 40 μl in a clean Eppendorf tube
• Reduction: DTT 10 mM, 30 min @ 56° C. • Alkylation: Iodoacetamide 30 mM, 45 min @ RT Click-iT AzideTamra of 60 μL samples
• Acetone Precipitation −20° C. ON • Dry pellet resuspended in 30 μL 1% SDS in 50 mM Tris-HCl pH 7.5 • Photolabeled LANCL1 was tagged with tetramethylrhodamine (TAMRA) azide @100 μM TAMRA azide by copper click chemistry using the Click-iT Protein Reaction Buffer Kit (ThermoFisher Scientific) during 30 minutes • Precipitation using the chloroform-methanol method, pellet was air-dried for 10 min at room temperature, resuspended in 30 μL SDS loading buffer (Bio Rad's XT Sample Buffer containing 2.5% v/v 2-mercaptoethanol) and heated (60° C., 30 min)
• SDS-PAGE (4-15% Criterion™ TGX Stain-Free™ Protein Gel, Bio Rad) • Analyzed by in-gel fluorescence scanning using a ChemiDoc™ MP Imaging System (Bio Rad) with a green LED light as an excitation source and a BP600/20 nm emission filter

[4] = test system: tissue homogenates of nerve from neuropathic animals; assay: PAL cross-linking to nerve tissue homogenates and gel separation; format: binding
Text: Using a ligand driven approach, the present inventors utilized the photo-activatable cross-linking PAL from Evotec A.G. (Photo-Activated Labelling) technology that derivatizes the active cyclic peptides to allow UV-induced cross-linking to binding targets (described herein as peptide/SEQ ID NO:X-PAL). This allows subsequent detection in cells, gels of tissue isolates or in pull-down of the peptide/target complex for sequencing by mass spectroscopy (PALMS).
LAT9991-PAL was cross-linked to tissue homogenates of nerve from neuropathic animals.

T1 sequence (O43813 with tags, fused parts or gaps): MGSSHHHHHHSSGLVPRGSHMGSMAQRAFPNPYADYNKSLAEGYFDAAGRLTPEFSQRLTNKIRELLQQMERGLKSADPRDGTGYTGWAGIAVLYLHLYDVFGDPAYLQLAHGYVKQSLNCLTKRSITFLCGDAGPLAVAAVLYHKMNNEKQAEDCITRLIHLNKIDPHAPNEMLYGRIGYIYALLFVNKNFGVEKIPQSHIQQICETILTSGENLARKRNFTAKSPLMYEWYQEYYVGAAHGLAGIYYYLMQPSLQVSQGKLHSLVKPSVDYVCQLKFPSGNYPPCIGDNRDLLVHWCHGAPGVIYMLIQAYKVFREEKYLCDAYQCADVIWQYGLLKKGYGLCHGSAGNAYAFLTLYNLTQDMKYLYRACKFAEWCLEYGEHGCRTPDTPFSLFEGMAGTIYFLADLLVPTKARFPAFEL

Row | Compound | Competition of LAT9991F-PAL binding by excess competitor ([1]; SiLANCL1 NCI-H358 cells) | Competition of LAT9991F-PAL binding by excess competitor ([2]; SiLANCL1 A549 cells) | Inhibition of LAT9991-PAL binding to recombinant LANCL1 by excess competitor [3] | other results
1 | N[C@@H](CCC(=O)N[C@@H](CS)C(=O)NCC(=O)O)C(=O)O [glutathione, reference compound] | partially competed off | partially competed off | – | –
2 | CRIIHNNNC [LAT7771] | partially competed off | partially competed off | inhibited | –
3 | O=C(Nc1cccc(-c2nc3ccccc3[nH]2)c1)c1ccc(C(=O)Nc2cccc(-c3nc4ccccc4[nH]3)c2)cc1 [NSC61610, reference compound] | strongly competed off | strongly competed off | – | –
4 | LAT9991F-PAL: A photoactivatable analog of LAT8881 (LAT9991F (SEQ ID NO:13)-PAL) (CRSVEGSCGF; disulfide 1-8 (inferred); also: PAL cross-linking group, site not given here) | – | – | – | Co-localization of LANCL1 and probe binding ([1]; NCI-H358 cells, confocal microscopy, probe 2.5 μM): co-localization; Co-localization of LANCL1 and probe after siRNA knockdown of LANCL1 ([1]; SiLANCL1 NCI-H358 cells): lost; Level of probe binding in siLANCL1 cells following stress ([1]; siLANCL1 NCI-H358 cells, vs control cells): less intense as compared to control cells; Co-localization of LANCL1 and probe binding ([2]; A549 cells, confocal microscopy, probe 2.5 μM): co-localization; Co-localization of LANCL1 and probe after siRNA knockdown of LANCL1 ([2]; SiLANCL1 A549 cells): lost; Level of probe binding in siLANCL1 cells following induced oxidative stress ([2]; siLANCL1 A549 cells, H2O2 25 μM 2 hours or Taxol 1 μM 3 hours, vs SiControl): less intense as compared to control cells
5 | SCRSRPVESSCS [LAT9993S] | partially competed off | partially competed off | inhibited | –
6 | LAT9993S-PAL: LAT9993S (SEQ ID NO:44) derivatized with the PAL photo-activatable cross-linking group (SCRSRPVESSCS; disulfide 2-11 (inferred); also: ['PAL photo-activatable cross-linking group, structure and site not given here']) | – | – | – | Binding of PAL probe to recombinant LANCL1 ([3]; in-gel fluorescence after UV (365 nm) cross-linking): bound to recombinant LANCL1; Cross-linking of PAL probe to tissue homogenates of nerve from neuropathic animals [4]: shown to cross-link; Molecular weight ranges of targets stained after gel separation ([4]; PAL probe cross-linked to nerve homogenates): ˜12-15 kD, ˜37 kD and ˜50 kD
